Reference: publication PMC5642494 (Oncotarget, 2017)
Like-named read-outs stand apart in the source and are kept apart here.

Legend:
MCF7 cells [1] = experiment: SA-β-gal immunofluorescence (senescence), MCF7; assay type: cell-based, human
Experimental: After treatment, cells were fixed, washed with PBS, permeabilized and β-gal was detected using anti-β-galactosidase antibody; for multiplexed assays, TUNEL staining was carried out using Roche TUNEL reagents as indicated above. Nuclei were also stained with PI for total cell counting. Plates were read in an Acumen Explorer Ex3 (TTP Labtech) and raw data were analyzed with Cellista software. Outputs were expressed as percentages of each identified subpopulation 1) positive β-gal, and 2) total cell number. The percentages of β-gal positive cells, TUNEL positive cells, and cell numbers were plotted in Microsoft Excel.

EFM-19 cells = experiment: PI high content imaging of G1 arrest and cell proliferation, EFM-19; assay type: cell-based; conditions: Homo sapiens, at least 2 DT
Experimental: Relative IC50/EC50 values were determined by curve fitting to a four parameter logistic equation: Y = bottom + ((top-bottom)/ (1+exp(HillSlope*(X – LnIC50)), where X is the natural log of dose/concentration, Y is response, decreasing as X increases, top and bottom are plateaus in the same units as Y, lnIC50 is the natural log of potency, in the same log units as X, and HillSlope measures the steepness of the curve. Data were plotted using GraphPad Prism. […]
Preclinical characterization of abemaciclib in hormone receptor […]
METHODS High content imaging cell-based assays for monitoring phosphorylation of Rb (ser780), G1 arrest and […]
ATP at 20°C by a secondary goat anti-mouse IgG-Alexa Fluor 488 in a 96-well plate filtration assay format. […] Plates were read in an kinase buffer containing 68 mM Hepes at pH 7.5, 6.67 mM Acumen Explorer eX3 (TTP Labtech). […] 10µL of CDK6/cyclin corresponding to 500-530 nm and the percentage of D3 enzyme complex (Millipore 14-519, #D13BP009NA) cells with pRb signal relative to the total PI stained (1 nM final concentration in the assay) was added onto subpopulation was calculated by the instrument’s software a mix of substrate and test compound. […]
(EDTA) was used to determine the level of background evaluated by measuring PI signal using high content 33P in the absence of enzyme activity. […]

[2] = tested on: MCF7, MDA-MB-361 and EFM-19 cells; experiment: Cell morphology by bright field microscopy; assay type: cell-based, human; conditions: 0.5 µM, 3 DT
Experimental: (A–D) Cells were treated with 0.2% DMSO (A MDA-
3 DT and side scatter (SSC) analysis was carried out using flow cytometry and analyzed with FlowJo X software.

MCF7 cells [3] = experiment: Ki-67 protein expression, MCF7; assay type: cell-based; conditions: Homo sapiens, 2 DT, read-out: EC50 Ki-67 levels
Experimental: Relative IC50/EC50 values were determined by curve fitting to a four parameter logistic equation: Y = bottom + ((top-bottom)/ (1+exp(HillSlope*(X – LnIC50)), where X is the natural log of dose/concentration, Y is response, decreasing as X increases, top and bottom are plateaus in the same units as Y, lnIC50 is the natural log of potency, in the same log units as X, and HillSlope measures the steepness of the curve. Data were plotted using GraphPad Prism.
After 72 hours, cells were stained with an anti-FOXM1 antibody and a secondary goat anti-rabbit IgG, Alexa Fluor® 488 conjugate; nuclei were stained with propidium iodide (PI). Alternatively, for assessment of Ki-67 levels, cells were treated for 2 DT and then stained with Ki-67 and a secondary goat anti-rabbit IgG, Alexa Fluor® 488 conjugate. Plates were read in an Acumen Explorer Ex3 (TTP Labtech) using Cellista software and the percentages of FOXM1 positive and Ki-67 positive cells were calculated over the background signal. Data were normalized in Excel using the mean value obtained from treatment with 2 µM BEZ235 as the minimum and the mean value obtained from treatment with 0.2% DMSO as the maximum.

`CCN1CCN(Cc2ccc(Nc3ncc(F)c(-c4cc(F)c5nc(C)n(C(C)C)c5c4)n3)nc2)CC1` [abemaciclib, Abemaciclib] was tested, and the “% β-gal Positive MCF7 Cells” value (MCF7 cells [1]; 0.5 µM, 4 days) was 16.15 ± 1.48%, the “% β-gal Positive MCF7 Cells” value (MCF7 cells [1]; 0.5 µM, 7 days) was 16.25 ± 0.35% and the “% β-gal Positive MCF7 Cells” value (MCF7 cells [1]; 0.5 µM, 10 days) was 19.7 ± 1.83%. For the same compound, the “% β-gal Positive MCF7 Cells” value (MCF7 cells [1]; 2 µM, 4 days) was 42.45 ± 5.86%, the “% β-gal Positive MCF7 Cells” value (MCF7 cells [1]; 2 µM, 7 days) was 55.4 ± 18.8% and the “% β-gal Positive MCF7 Cells” value (MCF7 cells [1]; 2 µM, 10 days) was 30.85 ± 3.46%. The IC50 (EFM-19 cells; n = 2, read-out: IC50 2n (G1 arrest)) was 32 ± 21 nM, the IC50 (EFM-19 cells; n = 2, read-out: IC50 Cell number) was 19 ± 4 nM and the cell morphology [2] was “larger and flatter compared to vehicle-treated cells”. For the same compound, the EC50 (MCF7 cells [3]) was 42.1 nM.
